Source: patent US20210032257A1, “(E)-1-(4-(DIMETHYLAMINO)BUT-2-ENOYL)PYRROLIDIN-3-YL 4-((3-ISOPROPYL-5-METHYLPYRAZOLO[1,5-A]PYRIMIDIN-7-YL)AMINO)PIPERIDINE-1-CARBOXYLATE FOR INHIBITING CDK7” (Eli Lilly and Company, priority 2017, published 2021)

Tests used:
Experiment in all cases: Biomarker study proliferation (CellTiter-Glo)
Assay type in all cases: cell-based
A549 = test system: A549
Summary of the method: (§1)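 First, cells are plated at 5000 per well and left overnight at 37 °C. Next, compound is added as a 10-point threefold series (10× dosing plate to 1× final). Then plates incubate 7 days, and CellTiter-Glo luminescence is measured.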

COV318 = conditions: COV318, OVARY, 7 days
Summary of the method: as §1

HCC1806 = test system: HCC1806
Summary of the method: as §1

HCT116 = test system: HCT116
Summary of the method: as §1

LN18 = test system: LN18
Summary of the method: as §1

MKN74 = test system: MKN74
Summary of the method: as §1

NCIH1155 = test system: NCIH1155
Summary of the method: as §1

NCIH146 = test system: NCIH146
Summary of the method: as §1

NCIH2030 = test system: NCIH2030
Summary of the method: as §1

NCIH69 = test system: NCIH69
Summary of the method: as §1

NCIH82 = test system: NCIH82
Summary of the method: as §1

OV90 = test system: OV90
Summary of the method: as §1

SKMEL28 = test system: SKMEL28
Summary of the method: as §1

SKUT1 = test system: SKUT1
Summary of the method: as §1

SNU478 = test system: SNU478
Summary of the method: as §1

SNU739 = test system: SNU739
Summary of the method: as §1

T47D = test system: T47D
Summary of the method: as §1

TEK1 = test system: TEK1
Summary of the method: as §1

[1] = 168 h, read-out: Anti-proliferation effect IC50

Structure (SMILES): Cc1cc(NC2CCN(C(=O)O[C@H]3CCN(C(=O)/C=C/CN(C)C)C3)CC2)n2ncc(C(C)C)c2n1 [Example 1, [(3S)-1-[(E)-4-(dimethylamino)but-2-enoyl]pyrrolidin-3-yl] 4-[(3-isopropyl-5-methyl-pyrazolo[1,5-a]pyrimidin-7-yl)amino]piperidine-1-carboxylate]
- Anti-proliferation effect % Inh. (A549; A549, LUNG, 7 days): 64%
- Anti-proliferation effect Outcome (A549; A549, LUNG, 7 days): Cytostatic (cytostatic (IC50<1 μM and % inhibition <70%))
- IC50 (A549; Homo sapiens, A549, 168 h, read-out: Anti-proliferation effect IC50): 139 nM
- IC50 (COV318; [1]): > 10000 nM
- Anti-proliferation effect % Inh. (COV318): 40%
- Anti-proliferation effect % Inh. (HCC1806; HCC1806, BREAST, 7 days): 99%
- Anti-proliferation effect Outcome (HCC1806; HCC1806, BREAST, 7 days): Cytotoxic (cytotoxic (IC50<1 μM and % inhibition ≥70%))
- IC50 (HCC1806; Homo sapiens, HCC1806, 168 h, read-out: Anti-proliferation effect IC50): 14 nM
- Anti-proliferation effect % Inh. (HCT116; HCT116, INTESTINE, 7 days): 88%
- Anti-proliferation effect Outcome (HCT116; HCT116, INTESTINE, 7 days): Cytotoxic (cytotoxic (IC50<1 μM and % inhibition ≥70%))
- IC50 (HCT116; Homo sapiens, HCT-116, 168 h, read-out: Anti-proliferation effect IC50): 41 nM
- IC50 (LN18; Homo sapiens, LN-18, 168 h, read-out: Anti-proliferation effect IC50): 15 nM
- Anti-proliferation effect % Inh. (LN18; LN18, CNS, 7 days): 91%
- Anti-proliferation effect Outcome (LN18; LN18, CNS, 7 days): Cytotoxic (cytotoxic (IC50<1 μM and % inhibition ≥70%))
- IC50 (MKN74; Homo sapiens, MKN-74, 168 h, read-out: Anti-proliferation effect IC50): 73 nM
- Anti-proliferation effect % Inh. (MKN74; MKN74, STOMACH, 7 days): 71%
- Anti-proliferation effect Outcome (MKN74; MKN74, STOMACH, 7 days): Cytotoxic (cytotoxic (IC50<1 μM and % inhibition ≥70%))
- IC50 (NCIH1155; Homo sapiens, NCI-H1155, 168 h, read-out: Anti-proliferation effect IC50): 43 nM
- Anti-proliferation effect % Inh. (NCIH1155; NCIH1155, LUNG, 7 days): 51%
- Anti-proliferation effect Outcome (NCIH1155; NCIH1155, LUNG, 7 days): Cytostatic (cytostatic (IC50<1 μM and % inhibition <70%))
- IC50 (NCIH146; Homo sapiens, NCI-H146, 168 h, read-out: Anti-proliferation effect IC50): 30 nM
- Anti-proliferation effect % Inh. (NCIH146; NCIH146, LUNG, 7 days): 77%
- Anti-proliferation effect Outcome (NCIH146; NCIH146, LUNG, 7 days): Cytotoxic (cytotoxic (IC50<1 μM and % inhibition ≥70%))
- IC50 (NCIH2030; Homo sapiens, NCI-H2030, 168 h, read-out: Anti-proliferation effect IC50): 5370 nM
- Anti-proliferation effect % Inh. (NCIH2030; NCIH2030, LUNG, 7 days): 9%
- Anti-proliferation effect Outcome (NCIH2030; NCIH2030, LUNG, 7 days): Insensitive (insensitive (IC50≥1 μM))
- IC50 (NCIH69; Homo sapiens, NCI-H69, 168 h, read-out: Anti-proliferation effect IC50): 173 nM
- Anti-proliferation effect % Inh. (NCIH69; NCIH69, LUNG, 7 days): 68%
- Anti-proliferation effect Outcome (NCIH69; NCIH69, LUNG, 7 days): Cytostatic (cytostatic (IC50<1 μM and % inhibition <70%))
- IC50 (NCIH82; Homo sapiens, NCI-H82, 168 h, read-out: Anti-proliferation effect IC50): 699 nM
- Anti-proliferation effect % Inh. (NCIH82; NCIH82, LUNG, 7 days): 22%
- Anti-proliferation effect Outcome (NCIH82; NCIH82, LUNG, 7 days): Cytostatic (cytostatic (IC50<1 μM and % inhibition <70%))
- IC50 (OV90; Homo sapiens, OV-90, 168 h, read-out: Anti-proliferation effect IC50): 34 nM
- Anti-proliferation effect % Inh. (OV90; OV90, OVARY, 7 days): 61%
- Anti-proliferation effect Outcome (OV90; OV90, OVARY, 7 days): Cytostatic (cytostatic (IC50<1 μM and % inhibition <70%))
- IC50 (SKMEL28; Homo sapiens, SK-MEL-28, 168 h, read-out: Anti-proliferation effect IC50): 98 nM
- Anti-proliferation effect % Inh. (SKMEL28; SKMEL28, SKIN, 7 days): 61%
- Anti-proliferation effect Outcome (SKMEL28; SKMEL28, SKIN, 7 days): Cytostatic (cytostatic (IC50<1 μM and % inhibition <70%))
- IC50 (SKUT1; Homo sapiens, SK-UT-1, 168 h, read-out: Anti-proliferation effect IC50): 41 nM
- Anti-proliferation effect % Inh. (SKUT1; SKUT1, SOFT TISSUE, 7 days): 89%
- Anti-proliferation effect Outcome (SKUT1; SKUT1, SOFT TISSUE, 7 days): Cytotoxic (cytotoxic (IC50<1 μM and % inhibition ≥70%))
- IC50 (SNU478; [1]): 32 nM
- Anti-proliferation effect % Inh. (SNU478; SNU478, BILIARY, 7 days): 92%
- Anti-proliferation effect Outcome (SNU478; SNU478, BILIARY, 7 days): Cytotoxic (cytotoxic (IC50<1 μM and % inhibition ≥70%))
- Anti-proliferation effect % Inh. (SNU739; SNU739, LIVER, 7 days): 47%
- Anti-proliferation effect Outcome (SNU739; SNU739, LIVER, 7 days): Insensitive (insensitive (IC50≥1 μM))
- IC50 (SNU739; SNU-739, 168 h, read-out: Anti-proliferation effect IC50): > 10000 nM
- Anti-proliferation effect % Inh. (T47D; BREAST, 7 days): 68%
- Anti-proliferation effect Outcome (T47D; BREAST, 7 days): Cytostatic (cytostatic (IC50<1 μM and % inhibition <70%))
- IC50 (T47D; Homo sapiens, 168 h, read-out: Anti-proliferation effect IC50): 45 nM
- IC50 (TEK1; [1]): 40 nM
- Anti-proliferation effect % Inh. (TEK1; TEK1, BILIARY, 7 days): 87%
- Anti-proliferation effect Outcome (TEK1; TEK1, BILIARY, 7 days): Cytotoxic (cytotoxic (IC50<1 μM and % inhibition ≥70%))
